How the values were obtained:
OBP2 = experiment: Fluorescent-quench ligand-protein-binding assay (OBP2 binding screen); design: species or system Apis mellifera
Excerpt: To identify a honeybee repellent disclosed herein, candidate compounds were screened based upon the fact that 2-heptanone is an established repellent of bees. 2-heptanone is thought to mediate its behavioral response through binding to a specific odorant-binding protein called OBP2. Therefore compounds that bind OBP2 have the potential to act as odor “mimics” of 2-heptanone. By utilizing a fluorescent-quench, ligand-protein-binding assay, 30,000 compounds from the DIVERSET® library (ChemBridge Corp., San Diego, Calif.), a chemical library, were screened and over 150 candidate compounds were isolated that bind OBP2 (Table 1). Such assays are generally known in the art. See, e.g., Briand, et al., Ligand-Binding Properties and Structural Characterization of a Novel Rat Odorant-Binding Protein Variant, Eur. J. Biochem. 267(10): 3079-3089 (2000); Briand, et al., Ligand Binding and Physico-Chemical Properties of ASP2, A Recombinant Odorant-Binding Protein From Honeybee (Apis mellifera L.), Eur. J. Biochem. 268(3): 752-760 (2001); Briand, et al., Characterization of a Chemosensory Protein (ASP3c) from Honeybee (Apis mellifera L.) as a Brood Pheromone Carrier, Eur. J. Biochem. 269(18): 4586-4596 (2002), each of which is hereby incorporated by reference in its entirety.

[1] = tested on: Apis mellifera Carniolan foraging worker honeybees; experiment: Proboscis extension response (PER) assay in bees conditioned to 2-heptanone; format: in vivo; details: final compound concentration 0.5% (TRITON X-100/water), 4 s exposure; only bees PER-positive to 2-heptanone and negative to controls counted
Protocol: To determine whether a living honeybee can recognize a candidate compound, these compounds were tested using a proboscis extension response (PER) assay using classical conditioning approaches. Proboscis extension response conditioning is a case of appetitive learning, in which bees learn to associate odor stimuli with sucrose reward in the laboratory. In this case, bees were conditioned to produce a PER to 2-heptanone as the conditioned stimulus and a sugar reward as the unconditioned stimulus. These trained bees were then exposed to an odor pulse of a candidate compound to test whether a candidate compound would also produce a PER. If the candidate compound “mimics” 2-heptanone then the honeybee will extend its proboscis.
For conditioning procedures, Apis mellifera Carniolan foraging worker honeybees were obtained from a local apiary (typically 60 bees per shipment). The honeybees were held overnight in insect cages with food and water freely available, in an environmentally controlled room on a light cycle similar to the ambient cycle at the time of the assay.
For conditioning procedures, all tests were done in an odorant delivery apparatus set inside a fume hood. The apparatus comprised a set of open-ended, horizontal, 3 cm diameter by 10 cm long plastic tubes. Each tube was designed where a honeybee could be positioned at the distal end of a tube, with the opening at the other end of the tube located proximal to an inlet of the fume hood. To deliver an odorant, room air was pumped by a diaphragm pump through a particle filter via 0.25 inch plastic tubing at approximately 0.7 m/sec. The air flow passes into the headspace above an odorant (0.5% [v/v]2-heptanone dissolved in odorless light paraffin oil) contained in a 100 mL bottle. The headspace air then passes through another plastic tube to a manifold of 4-way valves, each of which was attached near the proximal end of a plastic tube containing a bee. Each bee was exposed separately for a desired time period to the odorant by opening and closing the appropriate valve. When each valve was closed, the odor was flushed away immediately by the continuous fume hood air stream.
To train a honeybee to respond to a conditioned and unconditioned stimuli, bees were placed, without anesthesia, in individual 1.5 mL micro-centrifuge holding tubes and held overnight without access to food or water. The holding tubes containing the starved bees were placed in racks in groups of eight. One rack at a time was placed behind the odorant delivery apparatus so that each bee's head is centered at the distal end of a horizontal plastic tube. Each bee was exposed to the 2-heptanone odorant alone for four seconds, and then while being fed an 80% sucrose solution for and additional three seconds. The sucrose solution was delivered on a piece of saturated filter paper held in forceps. […] Positive and negative responses were recorded. A positive PER was scored when a bee extended its proboscis before the sucrose appeared. In a typical trial, 48 individual bees were subjected to conditioning. Six rounds of training were done before testing began, and typically a majority of the bees were successfully conditioned by the second or third round of training.
After conditioning, honeybees were tested with the candidate compounds the same day or on the following day or, most commonly, both. When held overnight, bees were fed with sucrose and kept in their holding tubes. When tested the day after training, bees were given one or more rounds of conditioning with 2-heptatone to refresh their memories. Candidate compounds stocks were made at 5% (w/v) in polyoxyethylene octyl phenyl ether (TRITON® X-100), a non-ionic detergent/surfactant, and stored at 4° C. This detergent is similar to substances used as carriers for a variety of commercial pest-control agents, can act as a solvent for both hydrophilic and hydrophobic substances, and is itself nearly odorless. […]

CC(C)Nc1c(Cl)c(Cl)c(Cl)c2c1C(=O)c1ccccc1C2=O [compound 22]
OBP2 binding characteristic of compound (OBP2): Strong (Strong, indicates that 51% or more of the compound bound to OBP2.) | 2-heptanone positive bees testing positive to compound [1]: 4.4%

O=C(C=Cc1c[nH]c2ccccc12)c1ccc(-c2ccccc2)cc1 [compound 52]
2-heptanone positive bees testing positive to compound [1]: 13.9%

O=C(NCCCOC(=O)c1ccc(Cl)cc1)c1ccc(Cl)cc1 [compound 58]
OBP2 binding characteristic of compound (OBP2): Moderate (Moderate, indicates that 50% or less of the compound bound to OBP2.) | 2-heptanone positive bees testing positive to compound [1]: 8.3%

CC1CN(c2ccc([N+](=O)[O-])c(NCCOc3ccc(Cl)cc3)c2)CCN1 (stereo not drawn) [compound 60]
OBP2 binding characteristic of compound (OBP2): Moderate (Moderate, indicates that 50% or less of the compound bound to OBP2.) | 2-heptanone positive bees testing positive to compound [1]: 25.0%

CC(C)(C)C1=CC(=NNC(N)=S)C=C(C(C)(C)C)C1=O [compound 42]
OBP2 binding characteristic of compound (OBP2): Moderate (Moderate, indicates that 50% or less of the compound bound to OBP2.) | 2-heptanone positive bees testing positive to compound [1]: 2.6%

O=c1[nH]c2ccccc2nc1-c1ccccc1NCc1ccc(F)cc1 [compound 18]
OBP2 binding characteristic of compound (OBP2): Strong (Strong, indicates that 51% or more of the compound bound to OBP2.) | 2-heptanone positive bees testing positive to compound [1]: 4.1%

CCCCn1c(=O)c(C(=O)NCc2ccccn2)c(O)c2ccccc21 [compound 16]
OBP2 binding characteristic of compound (OBP2): Strong (Strong, indicates that 51% or more of the compound bound to OBP2.) | 2-heptanone positive bees testing positive to compound [1]: 6.2%

CCn1c2ccccc2c2cc(C=Nc3ccc(C(N)=O)cc3)ccc21 [compound 56]
OBP2 binding characteristic of compound (OBP2): Moderate (Moderate, indicates that 50% or less of the compound bound to OBP2.) | 2-heptanone positive bees testing positive to compound [1]: 18.2%

CCOC(=O)C1=C(C)NC(C)=C(C(=O)OC)C1c1ccc(Br)cc1 (stereo not drawn) [compound 41]
OBP2 binding characteristic of compound (OBP2): Moderate (Moderate, indicates that 50% or less of the compound bound to OBP2.) | 2-heptanone positive bees testing positive to compound [1]: 1.4%

COc1cccc(C(=O)Oc2ccc3c(c2)C(C)=CC(C)(C)N3)c1 [compound 37]
OBP2 binding characteristic of compound (OBP2): Moderate (Moderate, indicates that 50% or less of the compound bound to OBP2.) | 2-heptanone positive bees testing positive to compound [1]: 14.4%

O=C(C=Cc1c[nH]c2ccccc12)c1ccc(C(=O)C=Cc2c[nH]c3ccccc23)cc1 [compound 51]
2-heptanone positive bees testing positive to compound [1]: 14.8%

COc1ccc(CN(C)CCN(C)C)c(C)c1C [compound 32]
2-heptanone positive bees testing positive to compound [1]: 2.4%

COC(=O)C1=C(C(=O)OC)SC(=C2C(=S)C(C)(C)N(C)c3ccccc32)S1 [compound 4]
2-heptanone positive bees testing positive to compound [1]: 4.7%

CCOc1ccc(C=Nc2ccc(Br)c(Cl)c2)cc1 [compound 12]
2-heptanone positive bees testing positive to compound [1]: 5.8%

COc1cc(C)c(CN2CCN(CCO)CC2)cc1C [compound 31]
2-heptanone positive bees testing positive to compound [1]: 0.0%

COc1ccc(CN2CCN(c3ccc(C)cc3)CC2)c(C)c1C [compound 49]
2-heptanone positive bees testing positive to compound [1]: 0.0%

COc1ccc(CN2CCN(C)CC2)c(C)c1C [compound 62]
2-heptanone positive bees testing positive to compound [1]: 11.6%

COC(=O)c1cc(S(=O)(=O)Nc2ccc(Br)cc2)ccc1Cl [compound 44]
OBP2 binding characteristic of compound (OBP2): Moderate (Moderate, indicates that 50% or less of the compound bound to OBP2.) | 2-heptanone positive bees testing positive to compound [1]: 7.3%

O=C(C=Cc1ccccc1)OCC1CCCN(Cc2cccc([N+](=O)[O-])c2)C1 (stereo not drawn) [compound 23]
OBP2 binding characteristic of compound (OBP2): Strong (Strong, indicates that 51% or more of the compound bound to OBP2.) | 2-heptanone positive bees testing positive to compound [1]: 3.3%

CN1CCN(Cc2cc3c(cc2[N+](=O)[O-])OCO3)CC1 [compound 45]
2-heptanone positive bees testing positive to compound [1]: 11.6%

COc1cc(CN2CCN(Cc3ccc4c(c3)OCO4)CC2)c([N+](=O)[O-])cc1OC [compound 46]
2-heptanone positive bees testing positive to compound [1]: 12.8%

Ic1ccc(-c2cn3ccsc3n2)cc1 [compound 53]
OBP2 binding characteristic of compound (OBP2): Moderate (Moderate, indicates that 50% or less of the compound bound to OBP2.) | 2-heptanone positive bees testing positive to compound [1]: 18.2%

O=[N+]([O-])c1cc2c(cc1CN1CCN(c3cccc(Cl)c3)CC1)OCO2 [compound 64]
OBP2 binding characteristic of compound (OBP2): Moderate (Moderate, indicates that 50% or less of the compound bound to OBP2.) | 2-heptanone positive bees testing positive to compound [1]: 7.0%

O=[N+]([O-])c1ccc(N2CCOCC2)cc1OCCOc1ccccc1 [compound 14]
OBP2 binding characteristic of compound (OBP2): Moderate (Moderate, indicates that 50% or less of the compound bound to OBP2.) | 2-heptanone positive bees testing positive to compound [1]: 3.9%

O=[N+]([O-])c1cc2c(cc1CN1CCN(c3ccccc3)CC1)OCO2 [compound 61]
OBP2 binding characteristic of compound (OBP2): Moderate (Moderate, indicates that 50% or less of the compound bound to OBP2.) | 2-heptanone positive bees testing positive to compound [1]: 17.4%

CCN1C(=O)C(=Cc2ccc(O)cc2)SC1=S [compound 15]
OBP2 binding characteristic of compound (OBP2): Strong (Strong, indicates that 51% or more of the compound bound to OBP2.) | 2-heptanone positive bees testing positive to compound [1]: 4.1%

COC(=O)C1=C(C(=O)OC)SC(=C2C(=S)C(C)(C)Nc3cc(C)ccc32)S1 [compound 19]
OBP2 binding characteristic of compound (OBP2): Strong (Strong, indicates that 51% or more of the compound bound to OBP2.) | 2-heptanone positive bees testing positive to compound [1]: 2.8%

Cc1ccc2c(c1Br)C(=NNC(=O)C1CC13CCC3)C(=O)N2 (stereo not drawn) [compound 55]
OBP2 binding characteristic of compound (OBP2): Moderate (Moderate, indicates that 50% or less of the compound bound to OBP2.) | 2-heptanone positive bees testing positive to compound [1]: 13.6%

CN(CCc1ccccn1)Cc1cc2c(cc1[N+](=O)[O-])OCO2 [compound 48]
2-heptanone positive bees testing positive to compound [1]: 18.9%

CCOC(=O)c1cc(-c2cccc(N)c2)nc2ccccc12 [compound 21]
OBP2 binding characteristic of compound (OBP2): Strong (Strong, indicates that 51% or more of the compound bound to OBP2.) | 2-heptanone positive bees testing positive to compound [1]: 4.4%

COc1ccccc1N1C(=O)C(=Cc2ccc(Cl)cc2)SC1=S [compound 5]
2-heptanone positive bees testing positive to compound [1]: 7.1%

O=[N+]([O-])c1cc2c(cc1CN1CCSCC1)OCO2 [compound 47]
2-heptanone positive bees testing positive to compound [1]: 18.3%

COc1ccc(CN(C)CCN(C)C)c(C)c1C [compound 66]
2-heptanone positive bees testing positive to compound [1]: 3.1%

COc1ccc(CN2CCOCC2)c(C)c1C [compound 63]
2-heptanone positive bees testing positive to compound [1]: 10.9%

CCN(CC)c1ccc2c(C)c([N+](=O)[O-])c(=O)oc2c1 [compound 6]
2-heptanone positive bees testing positive to compound [1]: 0.0%

O=[N+]([O-])c1cc2c(cc1CN1CCN(c3cccc(Cl)c3)CC1)OCO2 [compound 24]
2-heptanone positive bees testing positive to compound [1]: 4.8%

COc1ccc(CN2CCN(Cc3cccc(C)c3)CC2)cc1 [compound 65]
2-heptanone positive bees testing positive to compound [1]: 6.3%

COc1ccc2ccccc2c1C=NN1C(=O)c2ccccc2C1=O [compound 13]
2-heptanone positive bees testing positive to compound [1]: 8.7%

From patent publication US10098352B2, “Honeybee repellents and uses thereof” (Inscent, Inc., priority 2011, dated 2018)
